Reference: patent US20260317320A1, “C5AR1 ANTAGONISTS AND USES THEREOF” (Vanqua Bio, Inc., priority 2022, published 2026)

Key:
[1] = target: T1, complement C5a receptor 1 (C5aR1) (Homo sapiens, UniProt P21730); assay: β-arrestin recruitment via C5aR1 activation in live CHO-K1 cells (PathHunter), antagonist mode; type: cell-based; settings: antagonist mode; recombinant hC5a (EC90) as competing natural agonist; live CHO-K1 cells; read-out: [Antagonist] B-arrestin2 recruitment: Average IC50
T1 construct: β-galactosidase fragment (PathHunter enzyme complementation); host or cells: CHO-K1 (PathHunter CHO-K1 C5aR1 β-arrestin cell line)
T1 sequence (P21730 1-350): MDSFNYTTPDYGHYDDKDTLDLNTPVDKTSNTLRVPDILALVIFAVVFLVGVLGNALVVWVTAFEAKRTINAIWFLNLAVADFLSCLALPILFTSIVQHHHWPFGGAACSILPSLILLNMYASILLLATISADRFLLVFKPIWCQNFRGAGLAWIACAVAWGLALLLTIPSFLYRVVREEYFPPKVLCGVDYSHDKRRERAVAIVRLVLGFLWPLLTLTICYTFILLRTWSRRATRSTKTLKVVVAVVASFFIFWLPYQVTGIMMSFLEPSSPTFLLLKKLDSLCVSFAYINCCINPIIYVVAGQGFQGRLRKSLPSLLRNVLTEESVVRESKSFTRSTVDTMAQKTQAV
Summary of the method: (§1)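 Live CHO-K1 cells expressing β-galactosidase fragments fused to β-arrestin and C5aR1; recruitment is read by fragment complementation. In agonist mode compounds are tested alone; in antagonist mode they compete against recombinant hC5a at EC90. IC50 reported in binned ranges.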

[2] = target: T1, complement C5a receptor 1 (C5aR1); assay: β-arrestin recruitment via C5aR1 activation in live CHO-K1 cells (PathHunter), agonist mode; type: cell-based; settings: at 10 μM
Summary of the method: as §1

| Compound | IC50 [1] [nM] | [Agonist] B-arrestin2 recruitment: Average EC50 (nM) [2] |
| --- | --- | --- |
| Cc1cnc2cc([C@H]3CC[C@H](c4c(F)ccc5c4cnn5C)CC3)c(=O)n(Cc3ncccc3C(F)(F)F)c2n1 [compound 207, 7-((1r,4r)-4-(5-Fluoro-1-methyl-1H-indazol-4-yl)cyclohexyl)-3-methyl-5-((3-(trifluoromethyl)pyridin-2-yl)methyl)pyrido[2,3-b]pyrazin-6(5H)-one] | 5000 to 100000 | Non-Active at 10 μM |
| Cc1cnc2cc([C@H]3CC[C@H](c4c(F)cccc4F)CC3)c(=O)n(Cc3ncccc3OC(F)(F)F)c2n1 [compound 209, 7-((1r,4r)-4-(2,6-Difluorophenyl)cyclohexyl)-3-methyl-5-((3-(trifluoromethoxy)pyridin-2-yl)methyl)pyrido[2,3-b]pyrazin-6(5H)-one] | < 500 | Non-Active at 10 μM |
| Cc1ccc2cc([C@H]3CC[C@H](c4c(C)cccc4F)CC3)c(=O)n(Cc3nccnc3C(F)F)c2n1 [compound 210, 1-((3-(Difluoromethyl)pyrazin-2-yl)methyl)-3-((1r,4r)-4-(2-fluoro-6-methylphenyl)cyclohexyl)-7-methyl-1,8-naphthyridin-2(1H)-one] | < 500 | Non-Active at 10 μM |
| CCc1cnc2c(cc([C@H]3CC[C@H](c4c(C)cccc4F)CC3)c(=O)n2Cc2ncccc2C(F)(F)F)n1 [compound 211, 2-Ethyl-7-((1r,4r)-4-(2-fluoro-6-methylphenyl)cyclohexyl)-5-((3-(trifluoromethyl)pyridin-2-yl)methyl)pyrido[2,3-b]pyrazin-6(5H)-one] | < 500 | Non-Active at 10 μM |
| Cc1cnc2cc([C@H]3CC[C@H](c4c(C)cccc4F)CC3)c(=O)n(Cc3ncccc3OC(F)F)c2n1 [compound 212, 5-((3-(Difluoromethoxy)pyridin-2-yl)methyl)-7-((1r,4r)-4-(2-fluoro-6-methylphenyl)cyclohexyl)-3-methylpyrido[2,3-b]pyrazin-6(5H)-one] | < 500 | Non-Active at 10 μM |
| Cc1cnc2cc([C@H]3CC[C@H](c4c(C)cccc4F)CC3)c(=O)n(Cc3ncccc3OCC(F)(F)F)c2n1 [compound 213, 7-((1r,4r)-4-(2-Fluoro-6-methylphenyl)cyclohexyl)-3-methyl-5-((3-(2,2,2-trifluoroethoxy)pyridin-2-yl)methyl)pyrido[2,3-b]pyrazin-6(5H)-one] | < 500 | Non-Active at 10 μM |
| COc1cccnc1Cn1c(=O)c([C@H]2CC[C@H](c3c(C)cccc3F)CC2)cc2nc(C(F)(F)F)cnc21 [compound 214, 7-((1r,4r)-4-(2-Fluoro-6-methylphenyl)cyclohexyl)-5-((3-methoxypyridin-2-yl)methyl)-2-(trifluoromethyl)pyrido[2,3-b]pyrazin-6(5H)-one] | 5000 to 100000 | Non-Active at 10 μM |
| CCc1cnc2c(cc([C@H]3CC[C@H](c4c(C)cccc4F)CC3)c(=O)n2Cc2ncccc2OC(F)(F)F)n1 [compound 215, 2-Ethyl-7-((1r,4r)-4-(2-fluoro-6-methylphenyl)cyclohexyl)-5-((3-(trifluoromethoxy)pyridin-2-yl)methyl)pyrido[2,3-b]pyrazin-6(5H)-one] | < 500 | Non-Active at 10 μM |
| Cc1cnc2cc([C@H]3CC[C@H](c4c(F)cccc4C(F)(F)F)CC3)c(=O)n(Cc3ncccc3OC(F)(F)F)c2n1 [compound 216, 7-((1r,4r)-4-(2-Fluoro-6-(trifluoromethyl)phenyl)cyclohexyl)-3-methyl-5-((3-(trifluoromethoxy)pyridin-2-yl)methyl)pyrido[2,3-b]pyrazin-6(5H)-one] | 500 to 5000 | Non-Active at 10 μM |
| Cc1cnc2cc([C@H]3CC[C@H](c4c(F)ccc5cnn(C)c54)CC3)c(=O)n(Cc3ncccc3C(F)(F)F)c2n1 [compound 217, 3-Methyl-7-[(1r,4r)-4-(6-fluoro-1-methylindazol-7-yl)cyclohexyl]-5-{[3-(trifluoromethyl)pyridin-2-yl]methyl}pyrido[2,3-b]pyrazin-6-one] | 5000 to 100000 | Non-Active at 10 μM |
| Cc1cnc2cc([C@H]3CC[C@H](c4c(C)cccc4F)CC3)c(=O)n(Cc3ncccc3CC(F)(F)F)c2n1 [compound 219, 7-((1r,4r)-4-(2-Fluoro-6-methylphenyl)cyclohexyl)-3-methyl-5-((3-(2,2,2-trifluoroethyl)pyridin-2-yl)methyl) pyrido[2,3-b]pyrazin-6(5H)-one] | < 500 | Non-Active at 10 μM |
| Cc1cnc2cc([C@H]3CC[C@H](c4c(C)cccc4F)CC3)c(=O)n(Cc3ncccc3C3CC3)c2n1 [compound 220, 5-((3-Cyclopropylpyridin-2-yl)methyl)-7-((1r,4r)-4-(2-fluoro-6-methylphenyl)cyclohexyl)-3-methylpyrido[2,3-b]pyrazin-6(5H)-one] | < 500 | Non-Active at 10 μM |
| Cc1cnc2cc([C@H]3CC[C@H](c4c(C)cccc4F)CC3)c(=O)n(Cc3nccnc3C3CC3)c2n1 [compound 221, 5-((3-Cyclopropylpyrazin-2-yl)methyl)-7-((1r,4r)-4-(2-fluoro-6-methylphenyl)cyclohexyl)-3-methylpyrido[2,3-b]pyrazin-6(5H)-one] | < 500 | Non-Active at 10 μM |
| Cc1cnc2cc([C@H]3CC[C@H](c4c(F)cccc4F)CC3)c(=O)n(Cc3ncccc3C(F)(F)F)c2n1 [compound 222, 7-((1r,4r)-4-(2,6-Difluorophenyl)cyclohexyl)-3-methyl-5-((3-(trifluoromethyl)pyridin-2-yl)methyl)pyrido[2,3-b]pyrazin-6(5H)-one] | < 500 | Non-Active at 10 μM |
| Cc1ccc2cc([C@H]3CC[C@H](c4c(F)cccc4F)CC3)c(=O)n(Cc3ncccc3C(F)(F)F)c2n1 [compound 223, 3-((1r,4r)-4-(2,6-Difluorophenyl)cyclohexyl)-7-methyl-1-((3-(trifluoromethyl)pyridin-2-yl)methyl)-1,8-naphthyridin-2(1H)-one] | < 500 | Non-Active at 10 μM |
| Cc1cnc2cc([C@H]3CC[C@H](c4c(C)cccc4F)CC3)c(=O)n(Cc3ccccc3C(F)(F)F)c2n1 [compound 224, 7-((1r,4r)-4-(2-Fluoro-6-methylphenyl)cyclohexyl)-3-methyl-5-(2-(trifluoromethyl)benzyl)pyrido[2,3-b]pyrazin-6(5H)-one] | < 500 | Non-Active at 10 μM |
| Cc1ccc2cc([C@H]3CC[C@H](c4c(C)cccc4F)CC3)c(=O)n(Cc3ccccc3C(F)(F)F)c2n1 [compound 225, 3-((1r,4r)-4-(2-Fluoro-6-methylphenyl)cyclohexyl)-7-methyl-1-(2-(trifluoromethyl)benzyl)-1,8-naphthyridin-2(1H)-one] | < 500 | Non-Active at 10 μM |
| Cc1cccc(F)c1[C@H]1CC[C@H](c2cc3nc(CC(F)F)cnc3n(Cc3ncccc3C(F)(F)F)c2=O)CC1 [compound 226, 2-(2,2-Difluoroethyl)-7-((1r,4r)-4-(2-fluoro-6-methylphenyl)cyclohexyl)-5-((3-(trifluoromethyl)pyridin-2-yl)methyl)pyrido[2,3-b]pyrazin-6(5H)-one] | < 500 | Non-Active at 10 μM |
| CCCc1cnc2cc([C@H]3CC[C@H](c4c(C)cccc4F)CC3)c(=O)n(Cc3ncccc3C(F)(F)F)c2n1 [compound 227, 7-((1r,4r)-4-(2-Fluoro-6-methylphenyl)cyclohexyl)-3-propyl-5-((3-(trifluoromethyl)pyridin-2-yl)methyl)pyrido[2,3-b]pyrazin-6(5H)-one] | < 500 | Non-Active at 10 μM |
| Cc1cccc(F)c1[C@H]1CC[C@H](c2cc3nc(CC(F)(F)F)cnc3n(Cc3ncccc3C(F)(F)F)c2=O)CC1 [compound 228, 7-((1r,4r)-4-(2-Fluoro-6-methylphenyl)cyclohexyl)-2-(2,2,2-trifluoroethyl)-5-((3-(trifluoromethyl)pyridin-2-yl)methyl)pyrido[2,3-b]pyrazin-6(5H)-one] | < 500 | Non-Active at 10 μM |
| Cc1cccc(F)c1[C@H]1CC[C@H](c2cc3ncc(CC(F)(F)F)nc3n(Cc3ncccc3C(F)(F)F)c2=O)CC1 [compound 229, 7-((1r,4r)-4-(2-Fluoro-6-methylphenyl)cyclohexyl)-3-(2,2,2-trifluoroethyl)-5-((3-(trifluoromethyl)pyridin-2-yl)methyl)pyrido[2,3-b]pyrazin-6(5H)-one] | < 500 | Non-Active at 10 μM |
| COc1nccc(C)c1[C@H]1CC[C@H](c2cc3ncc(C)nc3n(Cc3ncccc3C(F)(F)F)c2=O)CC1 [compound 230, 7-((1r,4r)-4-(2-Methoxy-4-methylpyridin-3-yl)cyclohexyl)-3-methyl-5-((3-(trifluoromethyl)pyridine-2-yl)methyl)pyrido[2,3-b]pyrazin-6(5H)-one] | < 500 | Non-Active at 10 μM |
